Here are results for 24 molecules from ChEMBL document CHEMBL1142418, “CoMFA and HQSAR studies on 6,7-dimethoxy-4-pyrrolidylquinazoline derivatives as phosphodiesterase10A inhibitors” (Bioorg Med Chem, 2008).

Structures are written as SMILES.

Chain of cAMP and cAMP-inhibited cGMP 3',5'-cyclic phosphodiesterase 10A (Q9Y233 whole entry): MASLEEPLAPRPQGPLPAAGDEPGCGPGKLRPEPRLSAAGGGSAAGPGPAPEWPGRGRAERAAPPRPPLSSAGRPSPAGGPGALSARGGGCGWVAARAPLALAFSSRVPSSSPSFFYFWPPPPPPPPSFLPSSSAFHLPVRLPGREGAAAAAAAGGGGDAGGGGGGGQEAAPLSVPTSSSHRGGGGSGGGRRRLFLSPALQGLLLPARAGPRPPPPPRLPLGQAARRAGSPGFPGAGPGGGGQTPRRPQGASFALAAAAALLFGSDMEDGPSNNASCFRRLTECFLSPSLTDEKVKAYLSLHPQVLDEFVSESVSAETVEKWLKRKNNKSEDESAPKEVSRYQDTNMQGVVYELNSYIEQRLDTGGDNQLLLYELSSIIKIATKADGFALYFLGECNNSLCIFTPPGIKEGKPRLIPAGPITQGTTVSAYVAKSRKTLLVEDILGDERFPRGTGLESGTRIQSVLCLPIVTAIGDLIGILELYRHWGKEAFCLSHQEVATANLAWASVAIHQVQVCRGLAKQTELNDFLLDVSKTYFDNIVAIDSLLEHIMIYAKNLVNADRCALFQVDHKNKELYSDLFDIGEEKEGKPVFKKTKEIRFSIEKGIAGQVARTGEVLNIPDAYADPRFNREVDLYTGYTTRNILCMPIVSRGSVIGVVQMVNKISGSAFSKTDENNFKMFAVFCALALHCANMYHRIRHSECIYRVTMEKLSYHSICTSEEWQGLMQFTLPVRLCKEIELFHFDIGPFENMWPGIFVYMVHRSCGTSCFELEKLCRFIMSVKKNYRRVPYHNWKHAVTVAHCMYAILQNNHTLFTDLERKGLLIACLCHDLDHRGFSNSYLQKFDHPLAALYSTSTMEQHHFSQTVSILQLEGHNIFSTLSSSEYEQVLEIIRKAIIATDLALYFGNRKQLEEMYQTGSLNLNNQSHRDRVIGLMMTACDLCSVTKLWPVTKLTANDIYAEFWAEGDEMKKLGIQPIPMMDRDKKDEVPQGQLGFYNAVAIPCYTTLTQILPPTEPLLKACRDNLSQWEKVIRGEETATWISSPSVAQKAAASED

In one test the target is cGMP-inhibited 3',5'-cyclic phosphodiesterase 3B (Homo sapiens, UniProt Q13370). Nature of the test: Inhibition of PDE3B.
Chain of cGMP-inhibited 3',5'-cyclic phosphodiesterase 3B (Q13370 whole entry): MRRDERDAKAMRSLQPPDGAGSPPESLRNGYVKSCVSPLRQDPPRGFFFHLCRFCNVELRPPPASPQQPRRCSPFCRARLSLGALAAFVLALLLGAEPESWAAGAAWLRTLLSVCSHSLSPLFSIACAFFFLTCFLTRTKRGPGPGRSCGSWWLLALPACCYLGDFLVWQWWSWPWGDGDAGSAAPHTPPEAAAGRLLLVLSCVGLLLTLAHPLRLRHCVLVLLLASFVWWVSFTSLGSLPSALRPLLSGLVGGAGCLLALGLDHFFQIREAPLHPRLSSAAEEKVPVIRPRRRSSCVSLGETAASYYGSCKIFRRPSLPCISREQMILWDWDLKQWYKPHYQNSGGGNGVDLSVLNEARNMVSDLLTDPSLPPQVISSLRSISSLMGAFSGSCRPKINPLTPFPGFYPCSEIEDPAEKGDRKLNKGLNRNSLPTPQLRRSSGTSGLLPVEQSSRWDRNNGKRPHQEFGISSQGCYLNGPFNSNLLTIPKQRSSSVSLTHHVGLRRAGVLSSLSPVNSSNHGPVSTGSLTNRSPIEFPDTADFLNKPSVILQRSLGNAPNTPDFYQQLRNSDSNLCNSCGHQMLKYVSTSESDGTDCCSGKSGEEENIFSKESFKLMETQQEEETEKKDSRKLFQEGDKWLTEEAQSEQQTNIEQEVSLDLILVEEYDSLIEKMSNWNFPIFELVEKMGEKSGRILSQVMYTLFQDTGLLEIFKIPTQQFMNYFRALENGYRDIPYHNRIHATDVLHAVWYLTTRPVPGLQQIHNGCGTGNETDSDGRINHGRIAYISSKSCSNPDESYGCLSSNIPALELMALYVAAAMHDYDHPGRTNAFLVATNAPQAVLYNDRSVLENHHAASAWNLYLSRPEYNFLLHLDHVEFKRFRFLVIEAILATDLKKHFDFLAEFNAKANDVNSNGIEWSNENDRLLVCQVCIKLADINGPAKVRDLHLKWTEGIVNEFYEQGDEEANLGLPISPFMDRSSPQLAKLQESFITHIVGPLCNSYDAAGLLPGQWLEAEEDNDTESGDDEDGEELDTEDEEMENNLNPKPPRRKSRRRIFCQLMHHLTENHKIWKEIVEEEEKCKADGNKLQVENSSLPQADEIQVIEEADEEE
As a reminder, the Ki is the equilibrium dissociation constant of an inhibitor or competing ligand from its target. Lower therefore signals higher affinity. Turning to `COc1cc2ncnc(N3CC[C@@H](Oc4cccc(C(C)C)c4)C3)c2cc1OC`, the Ki is 474 nM. In other words, the sub-micromolar range.

Molecule `COc1cc2ncnc(N3CC[C@@H](Oc4ccc(OC(F)(F)F)cc4)C3)c2cc1OC` showed a Ki of 1820 nM. This Ki lies about 3.8-fold higher than the previous one.

Another test addresses cAMP and cAMP-inhibited cGMP 3',5'-cyclic phosphodiesterase 10A (Homo sapiens, UniProt Q9Y233). In words: Inhibition of PDE10A.
`COc1ccc2cc(O[C@@H]3CCN(c4ncnc5cc(OC)c(OC)cc45)C3)ccc2c1` returned a Ki of 18 nM.

With `COc1cc2ncnc(N3CC[C@@H](Oc4ccccn4)C3)c2cc1OC`, the affinity corresponds to a Ki of 123 nM.

Take `COc1cc2ncnc(N3CC[C@@H](Oc4ccccc4Cl)C3)c2cc1OC`: the Ki came to 198 nM.

The molecule `COc1cc2ncnc(N3CC[C@@H](Oc4ccc(C(C)(C)C)cc4)C3)c2cc1OC` yielded a Ki of 100 nM.

In the case of `COc1cc2ncnc(N3CC[C@@H](Oc4cccc5ccccc45)C3)c2cc1OC`, the affinity corresponds to a Ki of 210 nM.

`COc1cc2ncnc(N3CC[C@@H](Oc4ccccc4C(F)(F)F)C3)c2cc1OC` had a Ki of 811 nM.

In turn, `COc1cc2ncnc(N3CC[C@@H](Oc4cccc(C(C)C)c4)C3)c2cc1OC` showed a Ki of 171 nM.

The molecule `COc1ccc(O[C@@H]2CCN(c3ncnc4cc(OC)c(OC)cc34)C2)cc1OC` had a Ki of 67 nM. Against the preceding molecule, the Ki is about 2.6-fold lower.

As for `COc1cc2ncnc(N3CC[C@@H](Oc4cccnc4)C3)c2cc1OC`, the affinity, expressed as Ki, was 128 nM.

In the case of `COc1cc2ncnc(N3CC[C@@H](Oc4cc5ccccc5cn4)C3)c2cc1OC`, the affinity corresponds to a Ki of 19 nM.

Molecule `COc1cc2ncnc(N3CC[C@@H](Oc4ccc5c(c4)CCC5)C3)c2cc1OC` had a Ki of 68 nM.

Consider `COc1cc2ncnc(N3CC[C@@H](Oc4cccc(-c5ccccc5)c4)C3)c2cc1OC`, for which the Ki was determined as 136 nM. This Ki lies about 2-fold higher than the previous one.

Turning to `COc1cc2ncnc(N3CC[C@@H](Oc4ccc5cccnc5c4)C3)c2cc1OC`, the Ki was determined as 12 nM.

Turning to `COc1ccc2ccc(O[C@@H]3CCN(c4ncnc5cc(OC)c(OC)cc45)C3)cc2c1`, the Ki turned out to be 17 nM.

With `COc1cc2ncnc(N3CC[C@@H](Oc4ccccc4OC)C3)c2cc1OC`, the affinity, expressed as Ki, was 240 nM.

`COc1cc2ncnc(N3CC[C@@H](Oc4ccccc4C)C3)c2cc1OC` gave a Ki of 326 nM.

`CCOc1ccc(O[C@@H]2CCN(c3ncnc4cc(OC)c(OC)cc34)C2)cc1` had a Ki of 54 nM.

The molecule `COc1cc2ncnc(N3CC[C@@H](Oc4ccc(OC(F)(F)F)cc4)C3)c2cc1OC` displayed a Ki of 185 nM.

For the molecule `COc1cc2ncnc(N3CC[C@@H](Oc4ccc5nc(C)ccc5c4)C3)c2cc1OC`, the affinity corresponds to a Ki of 18 nM.

For `COc1cc2ncnc(N3CC[C@@H](Oc4ccc5ncccc5c4)C3)c2cc1OC`, the Ki was 12 nM.

`COc1cc2ncnc(N3CC[C@@H](Oc4ncc(Cl)cn4)C3)c2cc1OC`: the affinity, expressed as Ki, was 44 nM.

In the case of `COc1cc2ncnc(N3CC[C@@H](Oc4ccncc4)C3)c2cc1OC`, the affinity corresponds to a Ki of 112 nM.

In turn, `CCOc1cccc(O[C@@H]2CCN(c3ncnc4cc(OC)c(OC)cc34)C2)c1` gave a Ki of 94 nM.

As to `COc1cc2ncnc(N3CC[C@@H](Oc4ccccc4C#N)C3)c2cc1OC`, the Ki came out at 130 nM.

For another test, the target named is cGMP-inhibited 3',5'-cyclic phosphodiesterase 3A (Homo sapiens, UniProt Q14432). Nature of the test: Inhibition of PDE3A.
Chain of cGMP-inhibited 3',5'-cyclic phosphodiesterase 3A (Q14432 whole entry): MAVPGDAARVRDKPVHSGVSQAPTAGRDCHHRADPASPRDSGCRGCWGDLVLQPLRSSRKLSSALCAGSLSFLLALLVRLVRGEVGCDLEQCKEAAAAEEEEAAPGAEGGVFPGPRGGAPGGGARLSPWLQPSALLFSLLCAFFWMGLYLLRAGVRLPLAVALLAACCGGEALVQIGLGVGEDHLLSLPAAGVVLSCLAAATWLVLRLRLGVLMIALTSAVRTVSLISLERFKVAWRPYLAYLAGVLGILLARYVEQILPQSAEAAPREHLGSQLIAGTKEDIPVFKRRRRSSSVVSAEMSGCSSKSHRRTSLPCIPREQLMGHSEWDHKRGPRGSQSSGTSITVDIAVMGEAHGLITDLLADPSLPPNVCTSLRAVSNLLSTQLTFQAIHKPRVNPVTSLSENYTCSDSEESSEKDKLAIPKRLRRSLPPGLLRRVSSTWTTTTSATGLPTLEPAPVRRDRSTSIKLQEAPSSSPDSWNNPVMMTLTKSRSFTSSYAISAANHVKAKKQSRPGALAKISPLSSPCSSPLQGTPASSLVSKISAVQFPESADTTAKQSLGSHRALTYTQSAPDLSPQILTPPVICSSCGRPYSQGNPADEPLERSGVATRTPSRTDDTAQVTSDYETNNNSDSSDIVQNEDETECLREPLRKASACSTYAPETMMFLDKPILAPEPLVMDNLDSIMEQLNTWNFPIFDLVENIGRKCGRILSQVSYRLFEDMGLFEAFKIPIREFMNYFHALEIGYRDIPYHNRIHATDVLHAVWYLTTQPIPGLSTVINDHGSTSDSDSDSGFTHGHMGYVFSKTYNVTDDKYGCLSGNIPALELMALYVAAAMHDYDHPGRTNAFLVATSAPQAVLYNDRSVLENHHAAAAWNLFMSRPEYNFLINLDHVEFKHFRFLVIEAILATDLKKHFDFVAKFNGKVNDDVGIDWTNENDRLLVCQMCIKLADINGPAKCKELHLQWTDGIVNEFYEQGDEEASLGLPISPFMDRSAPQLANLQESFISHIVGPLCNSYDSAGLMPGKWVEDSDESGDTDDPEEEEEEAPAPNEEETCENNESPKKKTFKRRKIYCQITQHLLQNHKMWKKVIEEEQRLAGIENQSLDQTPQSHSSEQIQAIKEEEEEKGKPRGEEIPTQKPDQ
In the case of `COc1cc2ncnc(N3CC[C@@H](Oc4cccc(C(C)C)c4)C3)c2cc1OC`, the Ki was found to be 370 nM. That is a sub-micromolar value.

In turn, `COc1cc2ncnc(N3CC[C@@H](Oc4ccc(OC(F)(F)F)cc4)C3)c2cc1OC` registered a Ki of 739 nM.
